Calls of active or inactive are those of the source. The rule behind the calls is not given here.
Assays:
[1] = Prodrug conversion in Beagle dog assessed as AUC (0 to t) of 4'-Fluorouridine metabolite at 3 mg/kg/day, po treated for 7 days by LC-MS/MS analysis; format: ADME, organism-based, Canis lupus familiaris; settings: in vivo, 168 h, time 7 day
[2] = tested on: Mammarenavirus choriomeningitidis; assay: In vivo antiviral activity against LCMV infected in C57BL/6-Prf1tm1Sdz/J mouse assessed as animal survival rate at 1 to 5 mg/kg, po qd treated for 7 days relative to control; format: functional; settings: dose 1-5 mg/kg, time 7 day
[3] = Prodrug conversion in Sprague-Dawley rat assessed as 4'-Fluorouridine metabolite formation in thymus at 6 mg/kg, po measured for 0.5 to 24 hrs by LC-MS/MS analysis; format: ADME, organism-based; settings: in vivo, time 0.5-24 hrs
[4] = Stability in Beagle dog plasma administered orally or intravenously; format: ADME, cell-free, Canis lupus familiaris; settings: po
[5] = Prodrug conversion in Sprague-Dawley rat assessed as 4'-Fluorouridine metabolite formation in spleen at 6 mg/kg, po measured for 0.5 to 24 hrs by LC-MS/MS analysis; format: ADME, organism-based; settings: in vivo, time 0.5-24 hrs
[6] = Prodrug conversion in C57BL/6J mouse liver microsomes assessed as parent nucleoside metabolite formation at 1 uM measured up to 60 mins in presence of BNPP/NADPH/UDPGA by LC-MS/MS analysis; format: ADME, Microsome; settings: 1 h
[7] = Prodrug conversion in Sprague-Dawley rat assessed as volume of distribution at steady state of 4'-Fluorouridine metabolite treated orally or intravenously by LC-MS/MS analysis; format: ADME; settings: in vivo, po
[8] = biological target: Voltage-gated inwardly rectifying potassium channel KCNH2 (Homo sapiens, UniProt Q12809); assay: Inhibition of hERG; format: toxicity
Chain of Voltage-gated inwardly rectifying potassium channel KCNH2 (Q12809 whole entry): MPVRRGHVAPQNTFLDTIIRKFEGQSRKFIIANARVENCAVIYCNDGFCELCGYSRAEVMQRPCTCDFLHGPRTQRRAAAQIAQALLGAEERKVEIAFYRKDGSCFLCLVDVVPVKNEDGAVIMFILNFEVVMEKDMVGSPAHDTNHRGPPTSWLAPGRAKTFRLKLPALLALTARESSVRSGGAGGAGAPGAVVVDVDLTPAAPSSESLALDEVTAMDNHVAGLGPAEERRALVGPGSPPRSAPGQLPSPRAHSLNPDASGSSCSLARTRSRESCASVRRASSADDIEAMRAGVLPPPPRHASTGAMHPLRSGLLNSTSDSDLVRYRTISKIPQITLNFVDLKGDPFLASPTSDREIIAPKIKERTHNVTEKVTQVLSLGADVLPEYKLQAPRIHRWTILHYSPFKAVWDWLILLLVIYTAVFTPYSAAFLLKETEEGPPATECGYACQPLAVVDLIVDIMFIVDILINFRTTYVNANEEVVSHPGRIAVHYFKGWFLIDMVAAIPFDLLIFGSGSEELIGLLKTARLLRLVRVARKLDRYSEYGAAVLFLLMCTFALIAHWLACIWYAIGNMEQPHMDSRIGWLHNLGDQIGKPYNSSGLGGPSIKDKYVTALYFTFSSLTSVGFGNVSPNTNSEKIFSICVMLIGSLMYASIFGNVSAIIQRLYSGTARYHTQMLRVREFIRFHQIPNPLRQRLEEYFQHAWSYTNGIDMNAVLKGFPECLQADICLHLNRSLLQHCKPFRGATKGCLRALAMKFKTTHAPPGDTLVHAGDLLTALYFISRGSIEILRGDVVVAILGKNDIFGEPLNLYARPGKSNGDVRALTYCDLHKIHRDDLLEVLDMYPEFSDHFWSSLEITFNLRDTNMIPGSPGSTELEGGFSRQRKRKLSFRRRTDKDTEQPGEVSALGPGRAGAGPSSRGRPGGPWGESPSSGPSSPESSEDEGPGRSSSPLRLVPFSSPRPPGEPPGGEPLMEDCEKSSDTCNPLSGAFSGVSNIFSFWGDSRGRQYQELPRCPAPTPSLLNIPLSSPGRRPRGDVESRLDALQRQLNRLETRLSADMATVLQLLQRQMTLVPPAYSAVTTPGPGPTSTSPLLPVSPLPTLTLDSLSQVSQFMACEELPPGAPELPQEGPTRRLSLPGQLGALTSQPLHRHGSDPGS

[9] = AUC (0 to t) in fasted Cynomolgus monkey at 11.6 mg/kg, po by LC-MS/MS analysis; format: ADME, organism-based, Macaca fascicularis; settings: in vivo
[10] = tested on: A549; assay: Cytotoxicity against human A549 cells up to 100 uM; format: toxicity, cell-based; settings: a549, 100 µM
[11] = Prodrug conversion in C57BL/6J mouse assessed as Cmax of 4'-Fluorouridine metabolite at 2 mg/kg, po by LC-MS/MS analysis; format: ADME, organism-based; settings: in vivo
[12] = Stability of compound at pH 1.5 assessed as change in purity at 1 mg/ml incubated for 24 hrs by HPLC analysis; format: physicochemical; settings: buffer, pH 1.5, 24 h
[13] = Prodrug conversion in Beagle dog assessed as AUC (0 to t) of 4'-Fluorouridine metabolite at 1 mg/kg, iv by LC-MS/MS analysis; format: ADME, organism-based, Canis lupus familiaris; settings: in vivo
[14] = Cmax in fasted Cynomolgus monkey at 11.6 mg/kg, po by LC-MS/MS analysis; format: ADME, organism-based, Macaca fascicularis; settings: in vivo
[15] = Toxicity in Sprague-Dawley rat assessed as maximum tolerated dose; settings: in vivo
[16] = Prodrug conversion in Beagle dog assessed as half life of 4'-Fluorouridine metabolite treated orally or intravenously by LC-MS/MS analysis; format: ADME, Canis lupus familiaris; settings: in vivo, po
[17] = Prodrug conversion in C57BL/6J mouse assessed as Cmax of 4'-Fluorouridine metabolite at 6 mg/kg, po by LC-MS/MS analysis; format: ADME, organism-based; settings: in vivo
[18] = Prodrug conversion in Sprague-Dawley rat assessed as 4'-Fluorouridine metabolite formation in brain at 6 mg/kg, po measured for 0.5 to 24 hrs by LC-MS/MS analysis; format: ADME, organism-based; settings: in vivo, time 0.5-24 hrs
[19] = Prodrug conversion in Beagle dog assessed as AUC (0 to t) of 4'-Fluorouridine metabolite at 3 mg/kg, po by LC-MS/MS analysis; format: ADME, organism-based, Canis lupus familiaris; settings: in vivo
[20] = tested on: Mammarenavirus choriomeningitidis; assay: In vivo antiviral activity against LCMV infected in C57BL/6-Prf1tm1Sdz/J mouse assessed as improvement in platelet count at 1 to 5 mg/kg, po qd treated for 7 days; format: functional, organism-based; settings: dose 1-5 mg/kg, time 7.0 day
[21] = Stability in SIF assessed as compound degradation measured for 24 hrs by HPLC analysis; format: physicochemical; settings: simulated intestinal fluid (SIF), read-out: Drug degradation
[22] = Prodrug conversion in Sprague-Dawley rat assessed as 4'-Fluorouridine metabolite formation in heart at 6 mg/kg, po measured for 0.5 to 24 hrs by LC-MS/MS analysis; format: ADME, organism-based; settings: in vivo, time 0.5-24 hrs
[23] = Prodrug conversion in Sprague-Dawley rat assessed as 4'-Fluorouridine-NTP metabolite formation in thymus at 6 mg/kg, po measured for 0.5 to 24 hrs by LC-MS/MS analysis; format: ADME, organism-based; settings: in vivo, time 0.5-24 hrs

CC(C)C(=O)OC[C@@]1(F)O[C@@H](n2ccc(=O)n(COC(=O)c3cccnc3)c2=O)[C@H](OC(=O)C(C)C)[C@@H]1OC(=O)C(C)C
AUCt [1]: 1249 ng·h/mL
Survival [2]: 100%
Drug metabolism [3]: metabolite_detected
Stability [4]: Unstable
Drug metabolism [5]: metabolite_detected
Drug metabolism [6]: metabolite_notdetected
Vdss [7]: 24.3 L/kg
inhibition (INH) [8]: Not_active
AUC(0-t) [9]: 15100 ng·h/mL
Activity [10]: Non-toxic
Cmax [11]: 57 ng/mL
Activity [12]: -9.2%
AUCt [13]: 282 ng·h/mL
Cmax [14]: 2390 ng/mL
MTD [15]: > 500 mg/kg
t1/2 [16]: 1 h
Cmax [17]: 266 ng/mL
Drug metabolism [18]: metabolite_detected
AUCt [19]: 903 ng·h/mL
Activity [20]: Active
degraded at 24 h [21]: < 5%
Drug metabolism [22]: metabolite_detected
Drug metabolism [23]: metabolite_detected

From ChEMBL document CHEMBL6177980 (J Med Chem, 2025)
